The values below come from ChEMBL document CHEMBL5247643, “Discovery and Characterization of BAY-805, a Potent and Selective Inhibitor of Ubiquitin-Specific Protease USP21” (J Med Chem, 2023).

Activity calls are given as the source filed them. The calls are words filed in the database; no cut-off is given here.

Assay [1] deals with T1, Ubiquitin carboxyl-terminal hydrolase 2 (Homo sapiens) (UniProt O75604).
T1 sequence (whole entry): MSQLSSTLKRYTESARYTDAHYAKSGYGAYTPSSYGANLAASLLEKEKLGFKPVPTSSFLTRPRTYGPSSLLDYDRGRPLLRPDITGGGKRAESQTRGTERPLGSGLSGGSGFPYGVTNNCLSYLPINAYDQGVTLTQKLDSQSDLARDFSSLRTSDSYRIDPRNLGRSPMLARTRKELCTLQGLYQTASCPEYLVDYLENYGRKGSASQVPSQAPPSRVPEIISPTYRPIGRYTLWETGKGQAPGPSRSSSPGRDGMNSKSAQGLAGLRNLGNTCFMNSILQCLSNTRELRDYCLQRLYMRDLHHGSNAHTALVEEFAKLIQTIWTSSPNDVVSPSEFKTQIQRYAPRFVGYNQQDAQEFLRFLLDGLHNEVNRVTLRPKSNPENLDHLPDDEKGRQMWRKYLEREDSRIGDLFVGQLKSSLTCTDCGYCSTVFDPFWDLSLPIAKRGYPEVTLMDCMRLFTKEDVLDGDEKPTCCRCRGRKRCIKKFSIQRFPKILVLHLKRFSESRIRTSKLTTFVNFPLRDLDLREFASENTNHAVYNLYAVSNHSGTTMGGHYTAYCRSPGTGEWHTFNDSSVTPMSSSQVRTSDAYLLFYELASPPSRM
As to the kind of experiment: Inhibition of human USP2 (251 to 605 residues) expressed in Escherichia coli BL21 (DE3) using ubiquitin rhodamine 110 as substrate assessed as remaining enzyme activity at 10 to 50 uM by fluorometric assay. The following applies: dose 10-50 µM.

The target of assay [2] is T2, Ubiquitin carboxyl-terminal hydrolase 15 (Homo sapiens) (UniProt Q9Y4E8).
T2 sequence (whole entry): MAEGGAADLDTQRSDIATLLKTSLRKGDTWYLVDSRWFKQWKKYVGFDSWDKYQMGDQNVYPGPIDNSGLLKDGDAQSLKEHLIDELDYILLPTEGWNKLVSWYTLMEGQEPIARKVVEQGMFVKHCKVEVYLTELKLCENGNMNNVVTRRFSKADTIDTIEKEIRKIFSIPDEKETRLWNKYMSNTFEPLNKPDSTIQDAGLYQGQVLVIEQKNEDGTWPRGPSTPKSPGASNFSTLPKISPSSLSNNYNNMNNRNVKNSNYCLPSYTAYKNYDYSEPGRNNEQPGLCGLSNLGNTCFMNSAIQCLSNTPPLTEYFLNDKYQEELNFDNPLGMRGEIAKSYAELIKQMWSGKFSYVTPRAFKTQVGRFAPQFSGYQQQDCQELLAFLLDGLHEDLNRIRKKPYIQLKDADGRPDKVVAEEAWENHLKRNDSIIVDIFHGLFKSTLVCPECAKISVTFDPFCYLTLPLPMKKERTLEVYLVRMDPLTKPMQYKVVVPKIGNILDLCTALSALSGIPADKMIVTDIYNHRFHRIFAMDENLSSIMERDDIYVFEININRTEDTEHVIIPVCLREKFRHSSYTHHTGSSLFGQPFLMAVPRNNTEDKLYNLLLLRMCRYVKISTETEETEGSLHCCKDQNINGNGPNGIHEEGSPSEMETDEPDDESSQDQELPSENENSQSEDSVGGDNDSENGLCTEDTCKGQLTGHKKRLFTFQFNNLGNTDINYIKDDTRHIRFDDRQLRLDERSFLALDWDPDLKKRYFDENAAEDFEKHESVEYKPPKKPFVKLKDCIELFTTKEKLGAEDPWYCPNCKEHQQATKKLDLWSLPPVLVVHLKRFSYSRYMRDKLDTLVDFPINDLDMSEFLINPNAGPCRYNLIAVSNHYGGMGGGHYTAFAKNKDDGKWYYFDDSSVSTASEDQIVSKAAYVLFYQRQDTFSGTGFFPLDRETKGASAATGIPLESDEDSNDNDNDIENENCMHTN
As to the kind of experiment: Inhibition of human USP15 (1 to 952 residues) expressed in Sf9 cells using ubiquitin rhodamine 110 as substrate assessed as remaining enzyme activity at 10 to 50 uM by fluorometric assay. To be noted: dose 10-50 µM.

Another assay concerns MOLM-13. Kind of assay: Antiproliferative activity against human MOLM-13 cells assessed as reduction in cell viability up to 30 uM incubated for 72 hrs by CellTiter-Glo luminescent assay. It is filed as functional, cell-based.
In assay [3] the target is T3, Ubiquitin carboxyl-terminal hydrolase 8 (Homo sapiens) (UniProt P40818).
T3 sequence (whole entry): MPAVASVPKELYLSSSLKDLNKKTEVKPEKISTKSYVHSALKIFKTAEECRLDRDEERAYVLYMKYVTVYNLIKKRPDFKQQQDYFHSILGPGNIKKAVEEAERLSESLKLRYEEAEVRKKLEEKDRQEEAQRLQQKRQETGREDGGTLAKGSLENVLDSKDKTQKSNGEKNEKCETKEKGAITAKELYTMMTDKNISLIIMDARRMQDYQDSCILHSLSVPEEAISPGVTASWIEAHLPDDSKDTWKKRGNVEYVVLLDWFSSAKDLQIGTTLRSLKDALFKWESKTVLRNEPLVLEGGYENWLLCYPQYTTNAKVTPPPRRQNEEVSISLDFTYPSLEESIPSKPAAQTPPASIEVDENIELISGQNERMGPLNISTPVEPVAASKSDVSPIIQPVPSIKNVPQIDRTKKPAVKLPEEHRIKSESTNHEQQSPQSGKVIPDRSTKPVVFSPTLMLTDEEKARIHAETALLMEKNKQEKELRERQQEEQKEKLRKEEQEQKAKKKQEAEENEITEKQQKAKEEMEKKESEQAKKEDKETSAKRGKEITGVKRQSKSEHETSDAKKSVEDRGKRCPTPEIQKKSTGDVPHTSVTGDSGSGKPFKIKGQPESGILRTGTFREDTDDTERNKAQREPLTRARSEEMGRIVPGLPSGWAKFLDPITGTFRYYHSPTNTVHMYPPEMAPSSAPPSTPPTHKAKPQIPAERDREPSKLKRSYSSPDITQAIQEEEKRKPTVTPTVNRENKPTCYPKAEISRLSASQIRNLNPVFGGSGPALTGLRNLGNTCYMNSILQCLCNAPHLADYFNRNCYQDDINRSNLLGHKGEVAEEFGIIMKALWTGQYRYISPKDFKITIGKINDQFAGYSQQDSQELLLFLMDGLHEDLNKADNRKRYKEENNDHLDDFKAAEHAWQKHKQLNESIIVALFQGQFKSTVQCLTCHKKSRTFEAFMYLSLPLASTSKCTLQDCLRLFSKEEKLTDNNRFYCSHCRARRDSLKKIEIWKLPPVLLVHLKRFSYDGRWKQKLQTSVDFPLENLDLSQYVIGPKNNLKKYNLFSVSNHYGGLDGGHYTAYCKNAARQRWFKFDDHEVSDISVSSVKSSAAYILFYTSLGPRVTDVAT
As to the kind of experiment: Inhibition of human USP8 using ubiquitin rhodamine 110 as substrate at 10 to 50 uM by fluorometric assay. The following applies: dose 10-50 µM.

For `CC(NC(=O)C1CCCC1)C(=O)Nc1nnc(Cc2ccc([N+](=O)[O-])cc2)s1` (racemic), the Activity in assay [1] and in assay [2] was less than 50% in each case.
For `CC(C)C[C@H](NC(=O)C1(C(F)(F)F)CCCCC1)C(=O)Nc1nnc(Cc2ccc(C#N)cc2)s1`, the outcome in the assay on MOLM-13 was inactive. Further, the inhibition result in assay [3] was “inactive”.
